Entries after “also recorded” stand apart in the source; their conditions may differ. Like-named read-outs stand apart in the source and are kept apart here.
Tests used:
in vivo = assay: in vivo; design: species or system Sprague Dawley rats; settings: male, Sprague-Dawley, rat, po, 10 mg/kg
Protocol: Male Sprague Dawley (SD) rats (average weighing 220–250) g were purchased from the laboratory animal center of Wenzhou Medical University, Zhejiang Province, China. Animals were maintained in a controlled environment with a 12 h light-dark cycle at 20°C–25°C and 55% ± 15% relative humidity. Diet intake was not allowed for a period of 12 h prior to the experiment. Then, water was allowed to be free and food was provided after the experiment. All the experimental procedures and protocols were reviewed and approved by the animal ethics committee of Wenzhou Medical University according to the guide for the care and use of laboratory animals (xmsq2021-0409). 36 male rats aged 8–10 weeks were randomly selected and divided into six groups for gavage. […] Blood (300 μL) was collected from the tail veins into 1.5 mL tubes at 5, 15, and 30 min and 1, 2, 3, 4, 6, 8, 12, and 24 h after administering the drugs. The supernatant was collected and stored at −20°C after centrifugation at 4000 rpm for 10 min. The samples were restored to RT before analysis. 50 μL sample was accurately drawn to 1.5 mL of EP tube, 150 μL of midazolam internal standard solution (200 ng/mL) was added to the tube, then placed and vortexed for 15 s. After centrifugation at 13, 000 rpm for 15 min, 150 µL of supernatant was prepared for the UPLC-MS/MS system to analyze.
(§1) Statistical analysis was conducted using Student's t-test.

[1] = test system: HLMs (human liver microsomes); assay: Michaelis-Menten kinetics of tofacitinib metabolism (M8 formation) in HLMs; format: in vitro ADME; settings: tofacitinib metabolism to M8, no inhibitor, n = 3
Protocol: (§2) All except NADPH were mixed on ice.
as §1

[2] = test system: HLMs (human liver microsomes); assay: Inhibition of tofacitinib metabolism (M8 formation) in HLMs; format: in vitro ADME; settings: for Inhibition type / Ki: substrate tofacitinib; for IC50: substrate tofacitinib at about Km, 30 min, 37°C
Protocol: as §2, §1

[3] = test system: RLMs (rat liver microsomes); assay: Inhibition of tofacitinib metabolism (M8 formation) in RLMs by furanocoumarins; format: in vitro ADME; settings: for inhibitory effectiveness on RLMs (screening, M8 content): 100 μM furanocoumarin, 0.3 mg/mL RLMs; for IC50: substrate tofacitinib at about Km, 30 min, 37°C
Protocol: as §2, §1

[4] = test system: RLMs (rat liver microsomes); assay: Michaelis-Menten kinetics of tofacitinib metabolism (M8 formation) in RLMs; format: in vitro ADME; settings: tofacitinib metabolism to M8, no inhibitor, n = 3
Protocol: as §2, §1

[5] = biological target: recombinant human CYP3A4 (rCYP3A4) (Homo sapiens, UniProt P08684); assay: Inhibition of tofacitinib metabolism (M8 formation) by rCYP3A4
Protocol: as §2, §1

Sequence of recombinant human CYP3A4 (rCYP3A4) (P08684 whole entry): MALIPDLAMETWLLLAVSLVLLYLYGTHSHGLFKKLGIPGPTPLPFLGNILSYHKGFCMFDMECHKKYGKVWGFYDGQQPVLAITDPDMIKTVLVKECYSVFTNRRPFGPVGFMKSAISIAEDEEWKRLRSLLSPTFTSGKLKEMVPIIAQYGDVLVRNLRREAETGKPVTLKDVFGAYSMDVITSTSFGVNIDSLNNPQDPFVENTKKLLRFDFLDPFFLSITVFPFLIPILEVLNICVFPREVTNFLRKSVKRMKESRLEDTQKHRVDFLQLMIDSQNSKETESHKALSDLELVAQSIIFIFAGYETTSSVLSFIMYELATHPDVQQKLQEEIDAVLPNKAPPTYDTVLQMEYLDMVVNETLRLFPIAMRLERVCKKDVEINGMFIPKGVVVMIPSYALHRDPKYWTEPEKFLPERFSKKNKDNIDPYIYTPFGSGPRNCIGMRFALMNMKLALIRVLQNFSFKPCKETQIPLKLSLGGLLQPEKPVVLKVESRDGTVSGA

In the case of `C[C@@H]1CCN(C(=O)CC#N)C[C@@H]1N(C)c1ncnc2[nH]ccc12` [tofacitinib, Tofacitinib], the CLz/F (in vivo) is reported as 144 ± 39.3 mL/min/kg, the t1/2z (in vivo) is reported as 1.73 ± 0.44 h and the MRT last (in vivo; MRT(0-t)) is reported as 2.1 ± 0.27 h. The MRT inf (in vivo; MRT(0-∞)) was 2.19 ± 0.28 h, the Km [1] was 65.8 ± 4.75 µM and the Vmax [1] was 2.802 ± 0.0842 M8 area ratio. It also gave a Km ([2]; bergapten 0 μM) of 47.8 µM, a Vmax ([2]; bergapten 0 μM) of 2.973 M8 area ratio and a Km ([2]; bergapten 0.5 μM) of 53.1 µM. The Vmax ([2]; bergapten 0.5 μM) was 2.960 M8 area ratio, the Km ([2]; bergapten 1 μM) was 76.7 µM and the Vmax ([2]; bergapten 1 μM) was 3.018 M8 area ratio. It also gave a Km ([2]; bergapten 2 μM) of 190 µM, a Vmax ([2]; bergapten 2 μM) of 4.088 M8 area ratio and a Km ([2]; bergapten 4 μM) of ~5860 µM. For the same compound, the Vmax ([2]; bergapten 4 μM) was “∼43.85 M8 area ratio”, the Km ([2]; isopsoralen 0 μM) was 61.7 µM and the Vmax ([2]; isopsoralen 0 μM) was 1.886 M8 area ratio. It also gave a Km ([2]; isopsoralen 5 μM) of 71.1 µM, a Vmax ([2]; isopsoralen 5 μM) of 1.938 M8 area ratio and a Km ([2]; isopsoralen 10 μM) of 134 µM. The Vmax ([2]; isopsoralen 10 μM) was 1.718 M8 area ratio, the Km ([2]; isopsoralen 20 μM) was 432 µM and the Vmax ([2]; isopsoralen 20 μM) was 2.148 M8 area ratio. It also gave a Km ([2]; isopsoralen 40 μM) of 930 µM, a Vmax ([2]; isopsoralen 40 μM) of 2.589 M8 area ratio and a Km ([3]; RLMs, bergapten 0 μM) of 65.5 µM. It also gave a Vmax ([3]; RLMs, bergapten 0 μM) of 8.021 M8 area ratio, a Km ([3]; RLMs, bergapten 0.5 μM) of 72.3 µM and a Vmax ([3]; RLMs, bergapten 0.5 μM) of 8.054 M8 area ratio. The Km ([3]; RLMs, bergapten 1 μM) was 88.6 µM, the Vmax ([3]; RLMs, bergapten 1 μM) was 8.111 M8 area ratio and the Km ([3]; RLMs, bergapten 2 μM) was 160 µM. For the same compound, the Vmax ([3]; RLMs, bergapten 2 μM) was 8.689 M8 area ratio, the Km ([3]; RLMs, bergapten 4 μM) was 411 µM and the Vmax ([3]; RLMs, bergapten 4 μM) was 9.555 M8 area ratio. It also gave a Km ([3]; RLMs, isopsoralen 0 μM) of 77.7 µM, a Vmax ([3]; RLMs, isopsoralen 0 μM) of 5.190 M8 area ratio and a Km ([3]; RLMs, isopsoralen 5 μM) of 114 µM. It also gave a Vmax ([3]; RLMs, isopsoralen 5 μM) of 5.555 M8 area ratio, a Km ([3]; RLMs, isopsoralen 10 μM) of 259 µM and a Vmax ([3]; RLMs, isopsoralen 10 μM) of 5.529 M8 area ratio. It also gave a Km ([3]; RLMs, isopsoralen 20 μM) of 538 µM, a Vmax ([3]; RLMs, isopsoralen 20 μM) of 4.503 M8 area ratio and a Km ([3]; RLMs, isopsoralen 40 μM) of 410 µM. For the same compound, the Vmax ([3]; RLMs, isopsoralen 40 μM) was 2.664 M8 area ratio, the Km [4] was 76.2 ± 4.51 µM and the Vmax [4] was 7.259 ± 0.1879 M8 area ratio.
For `O=c1ccc2ccc3occc3c2o1` [Isopsoralen], the Inhibition type [2] was “competitive suppression; also recorded: Competitive inhibition”, the Ki [2] was 1770 nM and the IC50 [2] was 12300 nM. For the same compound, the “risk of DDI with tofacitinib (from Ki)” value [5] was “medium”, the IC50 ([5]; IC50, rCYP3A4, substrate tofacitinib at about Km, 30 min, 37°C) was 17100 nM and the Ki ([5]; Ki, rCYP3A4, substrate tofacitinib) was 15400 nM. The Inhibition type ([5]; rCYP3A4, substrate tofacitinib) was “competitive suppression; also recorded: Competitive inhibition”, the “inhibitory effectiveness on RLMs (screening, M8 content)” value [3] was “potent inhibitory activity” and the Inhibition type ([3]; RLMs, substrate tofacitinib) was “competitive suppression; also recorded: Competitive inhibition”. For the same compound, the IC50 ([3]; RLMs) was 19300 nM.
In the case of `COc1c2ccoc2cc2oc(=O)ccc12` [Bergapten, 5-methoxy-psoralen], the Inhibition type [2] is reported as “Competitive inhibition”, the Ki [2] is reported as 189 nM and the IC50 [2] is reported as 2650 nM. The Inhibition type ([2]; listed as bergapten) was “competitively inhibited”, the IC50 [5] was 1420 nM and the Ki [5] was 1220 nM. For the same compound, the Inhibition type ([5]; rCYP3A4, substrate tofacitinib) was “Competitive inhibition”, the Inhibition type ([5]; rCYP3A4, substrate tofacitinib, listed as bergapten) was “competitively inhibited” and the “inhibitory effectiveness on RLMs (screening, M8 content)” value [3] was “potent inhibitory activity”. For the same compound, the Inhibition type ([3]; RLMs, substrate tofacitinib) was “Competitive inhibition”, the Ki ([3]; RLMs, substrate tofacitinib) was 443 nM and the IC50 ([3]; RLMs) was 2620 nM. For the same compound, the Inhibition type ([3]; RLMs, substrate tofacitinib, listed as bergapten) was “competitively inhibited”.

Source: PMC11033359 (Frontiers in Pharmacology, 2024)
